Test results: the NIST ThermoML archive (doi:10.1016/j.tca.2016.12.010)
± gives the expanded uncertainty stated by the source.

How the values were obtained:
[1] = refractive index (Na D-line) (dimensionless); xn = mol fraction of the nth substance listed; settings: 94.9 kPa, Liquid, (Schmidt +Haensch) refractometer (Model DSR lambda)
[2] = xn = mol fraction of the nth substance listed; settings: 94.9 kPa, Liquid, Vibrating tube method

C1COCCN1 [tetrahydro-1,4-oxazine] + CCCCCCCCCCO
Settings	mass density, 293.15 K [kg/m3]	mass density, 303.15 K [kg/m3]	mass density, 313.15 K [kg/m3]	mass density, 323.15 K [kg/m3]	mass density, 333.15 K [kg/m3]	refractive index, 293.15 K	refractive index, 303.15 K	refractive index, 313.15 K	refractive index, 323.15 K	refractive index, 333.15 K
[1], x1 = 0.0959	–	–	–	–	–	1.43851 ± 0.0024	1.43425 ± 0.0024	1.43051 ± 0.0024	1.42665 ± 0.0024	1.42296 ± 0.0024
[1], x1 = 0.1971	–	–	–	–	–	1.44011 ± 0.0024	1.43584 ± 0.0024	1.43195 ± 0.0024	1.42808 ± 0.0024	1.42408 ± 0.0024
[1], x1 = 0.2983	–	–	–	–	–	1.44177 ± 0.0024	1.4374 ± 0.0024	1.43335 ± 0.0024	1.42935 ± 0.0024	1.4252 ± 0.0024
[1], x1 = 0.3997	–	–	–	–	–	1.44353 ± 0.0024	1.43915 ± 0.0024	1.43498 ± 0.0024	1.43086 ± 0.0024	1.42655 ± 0.0024
[1], x1 = 0.4984	–	–	–	–	–	1.44523 ± 0.0024	1.4408 ± 0.0024	1.43652 ± 0.0024	1.43224 ± 0.0024	1.4278 ± 0.0024
[1], x1 = 0.5901	–	–	–	–	–	1.44686 ± 0.0024	1.44235 ± 0.0024	1.43799 ± 0.0024	1.43378 ± 0.0024	1.42913 ± 0.0024
[1], x1 = 0.6748	–	–	–	–	–	1.44835 ± 0.0024	1.44395 ± 0.0024	1.43952 ± 0.0024	1.43524 ± 0.0024	1.4304 ± 0.0024
[1], x1 = 0.7975	–	–	–	–	–	1.45055 ± 0.0024	1.44625 ± 0.0024	1.4419 ± 0.0024	1.43735 ± 0.0024	1.43224 ± 0.0024
[1], x1 = 0.9053	–	–	–	–	–	1.45253 ± 0.0024	1.44834 ± 0.0024	1.44365 ± 0.0024	1.43915 ± 0.0024	1.43382 ± 0.0024
[1], x1 = 1	–	–	–	–	–	1.45453 ± 0.0024	1.45031 ± 0.0024	1.44574 ± 0.0024	1.44113 ± 0.0024	1.43562 ± 0.0024
[2], x1 = 0.0959	842.65 ± 4	835.47 ± 4	828.35 ± 4	821.08 ± 4	813.99 ± 4	–	–	–	–	–
[2], x1 = 0.1972	856.26 ± 4	849.05 ± 4	841.76 ± 4	834.65 ± 4	827.15 ± 4	–	–	–	–	–
[2], x1 = 0.2983	870.74 ± 4	863.32 ± 4	855.74 ± 4	848.36 ± 4	840.7 ± 4	–	–	–	–	–
[2], x1 = 0.3997	886.54 ± 4	878.86 ± 4	870.94 ± 4	863.25 ± 4	855.26 ± 4	–	–	–	–	–
[2], x1 = 0.4984	902.71 ± 4	894.8 ± 4	886.64 ± 4	878.61 ± 4	870.39 ± 4	–	–	–	–	–
[2], x1 = 0.5901	918.62 ± 4	910.46 ± 4	902.16 ± 4	894.03 ± 4	885.58 ± 4	–	–	–	–	–
[2], x1 = 0.6748	933.78 ± 4	925.53 ± 4	916.99 ± 4	908.75 ± 4	900.13 ± 4	–	–	–	–	–
[2], x1 = 0.7975	957.46 ± 4	948.96 ± 4	940.35 ± 4	931.54 ± 4	922.67 ± 4	–	–	–	–	–
[2], x1 = 0.9053	980.12 ± 4	971.33 ± 4	961.51 ± 4	952.35 ± 4	943.05 ± 4	–	–	–	–	–
[2], x1 = 1	999.54 ± 4	989.89 ± 4	979.82 ± 4	969.78 ± 4	959.74 ± 4	–	–	–	–	–
